For this test, the system named is Anticarsia gemmatalis. As to the kind of experiment: Insecticidal activity against Anticarsia gemmatalis (velvetbean caterpillar) third-instar larvae exposed to compound through topical dosing at mesothorax region assessed as induction of larval mortality. It is filed as functional.

Calls of active or inactive are those of the source. The rule behind the calls is not given here.

Data on three molecules can be found in ChEMBL document CHEMBL3046883, “Evaluation of insecticidal activity of diterpenes and lignans from Aristolochia malmeana against Anticarsia gemmatalis” (2008).

As to `C=C1C=C(C)[C@]2(C)CC[C@@H](C)[C@](C)(CC/C(C)=C/C(=O)O)[C@H]2C1`, the LD50 result is “inactive”.

With `O=C1OC[C@H](Cc2ccc3c(c2)OCO3)[C@H]1Cc1ccc2c(c1)OCO2`, the LD50 entry is “inactive”.

On to `COc1ccc(C[C@H]2COC(=O)[C@@H]2Cc2ccc3c(c2)OCO3)cc1OC` [(-)-KUSUNOKININ], for which the LD10 was 9.3 µg/µL, the LD50 is 230.1 µg/µL and the inhibition result is “Dose-dependent effect”.
